Laboratory results as given in patent US12162840B2, “Herbicidal compositions” (SYNGENTA PARTICIPATIONS AG, priority 2018, dated 2024).

What was measured:
Type in all cases: in vivo
Lolium perenne (LOLPE) = assay: B1 Post-emergence efficacy Test 1; conditions: post-emergence application, 1000 g/ha, evaluated after 13 days
In short: (§1)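 Eight days after sowing, potted plants in a glasshouse at 24/16 °C day/night were sprayed at 1000 g/ha. Thirteen days on, percentage plant damage was recorded and converted to a score from 1 (0-19%) to 5 (80-100%).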

Setaria faberi (SETFA) = assay: B1 Post-emergence efficacy Test 1; conditions: post-emergence application, 1000 g/ha, evaluated after 13 days
In short: as §1

[1] = system: Amaranthus retoflexus (AMARE); assay: B1 Post-emergence efficacy Test 1; conditions: post-emergence application, 1000 g/ha, evaluated after 13 days
In short: as §1

[2] = system: Ipomoea hederacea (IPOHE); assay: B1 Post-emergence efficacy Test 1; conditions: post-emergence application, 1000 g/ha, evaluated after 13 days
In short: as §1

[3] = system: Echinochloa crus-galli (ECHCG); assay: B1 Post-emergence efficacy Test 1; conditions: post-emergence application, 1000 g/ha, evaluated after 13 days
In short: as §1

Solanum nigrum (SOLNI) = assay: B1 Post-emergence efficacy Test 1; conditions: post-emergence application, 1000 g/ha, evaluated after 13 days
In short: as §1

[4] = system: warm season plant species; assay: B2 Post-emergence efficacy Test 2, warm season plant species; conditions: 15 days after application, 0-100 scale, 0=no damage, 100=total kill; for Herbicidal activity, ABUTH: Abutilon theophrasti; for Herbicidal activity, AMARE: Amaranthus retroflexus; for Herbicidal activity, BIDPI: Bidens pilosa; for Herbicidal activity, BRAPL: Brachiaria plantaginea; for Herbicidal activity, DIGSA: Digitaria sanguinalis; for Herbicidal activity, ECHCG: Echinochloa crus galli; for Herbicidal activity, ELEIN: Eleisine indica; for Herbicidal activity, EPHHL: Euphorbia hetrophylla; for Herbicidal activity, GLXMA: Glycine max; for Herbicidal activity, IPOHE: Ipomoea hederacea; for Herbicidal activity, ORYSA: Orysa sativa; for Herbicidal activity, PANMI: Panicum miliaceum; for Herbicidal activity, SETFA: Setaria faberi; for Herbicidal activity, SIDSP: Sida spinosa; for Herbicidal activity, SORVU: Sorghum bicolour; for Herbicidal activity, XANST: Xanthium strumarium; for Herbicidal activity, ZEAMX: Zea mays
Procedure: Seeds of a variety of test species (see Table B1) were sown in standard soil in pots. After cultivation for 12 days (post-emergence) under controlled conditions in a glasshouse (at 24/18° C. or 20/16° C., at day/night; 16 hours light; 65% humidity), the plants were sprayed with an aqueous spray solution derived from the formulation of the technical active ingredient dissolved in IF50 (see Table B2 for composition) and adjuvant (Genapol XO80) was added to the spray solution at a rate of 0.2% v/v. [table] [table] After application, the test plants were grown in a glasshouse under controlled conditions (as above) and watered twice daily. Herbicidal activity was evaluated 15 days after application on a 0-100 scale. The results, where 0=no damage to test plant and 100=total kill of test plant are shown below in Tables 6 to 9.

Which “percentage damage caused to the plant, five point scale, LOLPE” value (Lolium perenne (LOLPE)) does the source give for `Cc1nn(C)c(=O)c(-c2c(F)ccc(Cl)c2CCc2ccccc2C(F)(F)F)c1O` [Compound 1.066] here?
The value was 4 (4=60-79%).

And the “percentage damage caused to the plant, five point scale, SETFA” value (Setaria faberi (SETFA))?
Its value is 5 (5=80-100%).

And the “percentage damage caused to the plant, five point scale, AMARE” value [1]?
Its value is 5 (5=80-100%).

What about the “percentage damage caused to the plant, five point scale, IPOHE” value [2] of the same compound?
Its value is 5 (5=80-100%).

What about the “percentage damage caused to the plant, five point scale, ECHCG” value [3] of the same compound?
The value was 5 (5=80-100%).

What about the “percentage damage caused to the plant, five point scale, SOLNI” value (Solanum nigrum (SOLNI)) of the same compound?
The value was 5 (5=80-100%).

And the “Herbicidal activity, ABUTH” value ([4]; 15 g/Ha)?
The value was 20.

What about the “Herbicidal activity, ABUTH” value ([4]; 30 g/Ha) of the same compound?
Its value is 50.

And the “Herbicidal activity, ABUTH” value ([4]; 60 g/Ha)?
Its value is 50.

And the “Herbicidal activity, ABUTH” value ([4]; 125 g/Ha)?
The value was 90.

What about the “Herbicidal activity, ABUTH” value ([4]; 250 g/Ha) of the same compound?
The value was 90.

And the “Herbicidal activity, ABUTH” value ([4]; 500 g/Ha)?
Its value is 100.

What about the “Herbicidal activity, AMARE” value ([4]; 15 g/Ha) of the same compound?
Its value is 90.

And the “Herbicidal activity, AMARE” value ([4]; 30 g/Ha)?
The value was 90.

What about the “Herbicidal activity, AMARE” value ([4]; 60 g/Ha) of the same compound?
The value was 90.

And the “Herbicidal activity, AMARE” value ([4]; 125 g/Ha)?
The value was 100.

And the “Herbicidal activity, AMARE” value ([4]; 250 g/Ha)?
The value was 100.

And the “Herbicidal activity, AMARE” value ([4]; 500 g/Ha)?
The value was 100.

What about the “Herbicidal activity, BIDPI” value ([4]; 15 g/Ha) of the same compound?
Its value is 50.

What about the “Herbicidal activity, BIDPI” value ([4]; 30 g/Ha) of the same compound?
The value was 60.

What about the “Herbicidal activity, BIDPI” value ([4]; 60 g/Ha) of the same compound?
Its value is 70.

And the “Herbicidal activity, BIDPI” value ([4]; 125 g/Ha)?
Its value is 80.

And the “Herbicidal activity, BIDPI” value ([4]; 250 g/Ha)?
The value was 90.

What about the “Herbicidal activity, BIDPI” value ([4]; 500 g/Ha) of the same compound?
Its value is 90.

And the “Herbicidal activity, BRAPL” value ([4]; 15 g/Ha)?
The value was 0.

And the “Herbicidal activity, BRAPL” value ([4]; 30 g/Ha)?
Its value is 60.

What about the “Herbicidal activity, BRAPL” value ([4]; 125 g/Ha) of the same compound?
The value was 80.

What about the “Herbicidal activity, BRAPL” value ([4]; 250 g/Ha) of the same compound?
The value was 70.

And the “Herbicidal activity, BRAPL” value ([4]; 500 g/Ha)?
The value was 100.

What about the “Herbicidal activity, DIGSA” value ([4]; 15 g/Ha) of the same compound?
The value was 0.

And the “Herbicidal activity, DIGSA” value ([4]; 30 g/Ha)?
Its value is 20.

And the “Herbicidal activity, DIGSA” value ([4]; 60 g/Ha)?
The value was 20.

And the “Herbicidal activity, DIGSA” value ([4]; 125 g/Ha)?
Its value is 40.

And the “Herbicidal activity, DIGSA” value ([4]; 250 g/Ha)?
The value was 70.

And the “Herbicidal activity, DIGSA” value ([4]; 500 g/Ha)?
Its value is 70.

And the “Herbicidal activity, ECHCG” value ([4]; 15 g/Ha)?
Its value is 20.

And the “Herbicidal activity, ECHCG” value ([4]; 30 g/Ha)?
The value was 80.

And the “Herbicidal activity, ECHCG” value ([4]; 60 g/Ha)?
The value was 90.

And the “Herbicidal activity, ECHCG” value ([4]; 125 g/Ha)?
The value was 90.

And the “Herbicidal activity, ECHCG” value ([4]; 250 g/Ha)?
Its value is 90.

What about the “Herbicidal activity, ECHCG” value ([4]; 500 g/Ha) of the same compound?
The value was 90.

What about the “Herbicidal activity, ELEIN” value ([4]; 15 g/Ha) of the same compound?
The value was 0.

What about the “Herbicidal activity, ELEIN” value ([4]; 30 g/Ha) of the same compound?
The value was 20.

What about the “Herbicidal activity, ELEIN” value ([4]; 60 g/Ha) of the same compound?
The value was 70.

What about the “Herbicidal activity, ELEIN” value ([4]; 125 g/Ha) of the same compound?
Its value is 70.

What about the “Herbicidal activity, ELEIN” value ([4]; 250 g/Ha) of the same compound?
Its value is 70.

What about the “Herbicidal activity, ELEIN” value ([4]; 500 g/Ha) of the same compound?
The value was 80.

And the “Herbicidal activity, EPHHL” value ([4]; 15 g/Ha)?
The value was 60.

What about the “Herbicidal activity, EPHHL” value ([4]; 30 g/Ha) of the same compound?
Its value is 70.

And the “Herbicidal activity, EPHHL” value ([4]; 60 g/Ha)?
Its value is 80.

What about the “Herbicidal activity, EPHHL” value ([4]; 125 g/Ha) of the same compound?
Its value is 90.

What about the “Herbicidal activity, EPHHL” value ([4]; 250 g/Ha) of the same compound?
Its value is 100.

What about the “Herbicidal activity, EPHHL” value ([4]; 500 g/Ha) of the same compound?
Its value is 100.

And the “Herbicidal activity, GLXMA” value ([4]; 15 g/Ha)?
Its value is 20.

What about the “Herbicidal activity, GLXMA” value ([4]; 30 g/Ha) of the same compound?
The value was 40.

What about the “Herbicidal activity, GLXMA” value ([4]; 60 g/Ha) of the same compound?
The value was 70.

And the “Herbicidal activity, GLXMA” value ([4]; 125 g/Ha)?
Its value is 70.

And the “Herbicidal activity, GLXMA” value ([4]; 250 g/Ha)?
The value was 90.

And the “Herbicidal activity, GLXMA” value ([4]; 500 g/Ha)?
Its value is 90.

What about the “Herbicidal activity, IPOHE” value ([4]; 15 g/Ha) of the same compound?
Its value is 70.

And the “Herbicidal activity, IPOHE” value ([4]; 30 g/Ha)?
Its value is 90.

What about the “Herbicidal activity, IPOHE” value ([4]; 60 g/Ha) of the same compound?
Its value is 90.

And the “Herbicidal activity, IPOHE” value ([4]; 125 g/Ha)?
Its value is 100.

And the “Herbicidal activity, IPOHE” value ([4]; 250 g/Ha)?
The value was 100.

And the “Herbicidal activity, IPOHE” value ([4]; 500 g/Ha)?
The value was 100.

And the “Herbicidal activity, ORYSA” value ([4]; 15 g/Ha)?
The value was 0.

What about the “Herbicidal activity, ORYSA” value ([4]; 30 g/Ha) of the same compound?
The value was 0.

And the “Herbicidal activity, ORYSA” value ([4]; 60 g/Ha)?
The value was 0.

And the “Herbicidal activity, ORYSA” value ([4]; 125 g/Ha)?
The value was 10.

And the “Herbicidal activity, ORYSA” value ([4]; 250 g/Ha)?
The value was 20.

And the “Herbicidal activity, ORYSA” value ([4]; 500 g/Ha)?
The value was 40.

And the “Herbicidal activity, PANMI” value ([4]; 15 g/Ha)?
Its value is 0.

What about the “Herbicidal activity, PANMI” value ([4]; 30 g/Ha) of the same compound?
Its value is 50.

What about the “Herbicidal activity, PANMI” value ([4]; 60 g/Ha) of the same compound?
Its value is 60.

And the “Herbicidal activity, PANMI” value ([4]; 125 g/Ha)?
Its value is 80.

What about the “Herbicidal activity, PANMI” value ([4]; 250 g/Ha) of the same compound?
Its value is 100.

What about the “Herbicidal activity, PANMI” value ([4]; 500 g/Ha) of the same compound?
The value was 100.

What about the “Herbicidal activity, SETFA” value ([4]; 15 g/Ha) of the same compound?
Its value is 0.

What about the “Herbicidal activity, SETFA” value ([4]; 30 g/Ha) of the same compound?
Its value is 70.

What about the “Herbicidal activity, SETFA” value ([4]; 60 g/Ha) of the same compound?
The value was 70.

What about the “Herbicidal activity, SETFA” value ([4]; 125 g/Ha) of the same compound?
Its value is 80.

And the “Herbicidal activity, SETFA” value ([4]; 250 g/Ha)?
Its value is 90.

What about the “Herbicidal activity, SETFA” value ([4]; 500 g/Ha) of the same compound?
Its value is 90.

What about the “Herbicidal activity, SIDSP” value ([4]; 15 g/Ha) of the same compound?
Its value is 40.

What about the “Herbicidal activity, SIDSP” value ([4]; 30 g/Ha) of the same compound?
Its value is 80.

What about the “Herbicidal activity, SIDSP” value ([4]; 60 g/Ha) of the same compound?
The value was 80.

What about the “Herbicidal activity, SIDSP” value ([4]; 125 g/Ha) of the same compound?
The value was 90.

And the “Herbicidal activity, SIDSP” value ([4]; 250 g/Ha)?
Its value is 90.

What about the “Herbicidal activity, SIDSP” value ([4]; 500 g/Ha) of the same compound?
The value was 100.

What about the “Herbicidal activity, SORVU” value ([4]; 15 g/Ha) of the same compound?
Its value is 0.

And the “Herbicidal activity, SORVU” value ([4]; 30 g/Ha)?
Its value is 20.

What about the “Herbicidal activity, SORVU” value ([4]; 60 g/Ha) of the same compound?
Its value is 60.

What about the “Herbicidal activity, SORVU” value ([4]; 125 g/Ha) of the same compound?
Its value is 80.

What about the “Herbicidal activity, SORVU” value ([4]; 250 g/Ha) of the same compound?
The value was 90.

And the “Herbicidal activity, SORVU” value ([4]; 500 g/Ha)?
The value was 100.

And the “Herbicidal activity, XANST” value ([4]; 60 g/Ha)?
Its value is 90.

What about the “Herbicidal activity, XANST” value ([4]; 250 g/Ha) of the same compound?
The value was 100.

What about the “Herbicidal activity, XANST” value ([4]; 500 g/Ha) of the same compound?
The value was 100.

And the “Herbicidal activity, ZEAMX” value ([4]; 15 g/Ha)?
Its value is 0.

And the “Herbicidal activity, ZEAMX” value ([4]; 30 g/Ha)?
Its value is 20.

What about the “Herbicidal activity, ZEAMX” value ([4]; 60 g/Ha) of the same compound?
Its value is 20.

What about the “Herbicidal activity, ZEAMX” value ([4]; 125 g/Ha) of the same compound?
The value was 20.

And the “Herbicidal activity, ZEAMX” value ([4]; 250 g/Ha)?
The value was 30.

What about the “Herbicidal activity, ZEAMX” value ([4]; 500 g/Ha) of the same compound?
The value was 70.
